Literature values as cited in article PMC9710334 (BMJ Open Gastroenterology, 2022).

B1: vantictumab: Wnt pathway inhibitor (antibody, chains of the INN, looked up, V domains shown)
VH: EVQLVESGGGLVQPGGSLRLSCAASGFTFSHYTLSWVRQAPGKGLEWVSVISGDGSYTYYADSVKGRFTISSDNSKNTLYLQMNSLRAEDTAVYYCARNFIKYVFANWGQGTLVTVSS
VL: DIELTQPPSVSVAPGQTARISCSGDNIGSFYVHWYQQKPGQAPVLVIYDKSNRPSGIPERFSGSNSGNTATLTISGTQAEDEADYYCQSYANTLSLVFGGGTKLTVL

Experiments:
patients with PBC = conditions: approximately ref 1 3; cited from earlier work
treated patients = treated patients ref 37 38; cited from earlier work

Molecule | patients without an optimal biochemical response (patients with PBC) | risk for fragility fractures (treated patients)
C[C@H](CCC(=O)O)[C@H]1CC[C@H]2[C@@H]3[C@@H](O)C[C@@H]4C[C@H](O)CC[C@]4(C)[C@H]3CC[C@]12C [UDCA, ursodeoxycholic acid] | 30%–40% | 
B1 |  | increased risk for fragility fractures
